Assay results: patent publication US20080051438A1, “Preventive/Therapeutic Compositions Useful for Treating Cardiovascular Diseases” (priority 2006, published 2008)

System: hypertensive patients
Assay: Special investigation of combined use of cilnidipine and ARB: degree of the blood pressure controls judged by the doctor (efficacy ratio)
Type: in vivo, human
Design: concentration or dose not given beside the values
Method: A special investigation was conducted in various medical centers, compiled, and analyzed to evaluate the safety and availability of the combined use of cilnidipine and at least one angiotensin II receptor blocker.
The subjects of the investigation were hypertensive patients which were adapted to cilnidipine. Combined administration of cilnidipine and ARB was started for the treatment of hypertension in these patients.
A prospective continuous investigation method was conducted. Such a method is continuously conducted with the registered cases with the combined administration of cilnidipine (Atelec®) and ARB, until the number of cases reaches the contracted cases for each center.
Regarding the administration method of cilnidipine, 5 to 10 mg of cilnidipine was orally administered after breakfast once a day. Meanwhile, the amount may increase or decrease depending on patient's age, symptoms, or the like. When the effect is insufficient, the amount can be increased to 20 mg once a day. The dosing period of cilnidipine was set to 12 weeks in principle.
The following items were tracked during the investigation: patient's background (sex), existence or nonexistence of previous therapeutic agents and the content thereof, targeted blood pressure (systolic BP/diastolic BP), the conditions of administration of cilnidipine and ARB, antihypertensives used in combination (those other than cilnidipine or ARB), clinical course (systolic BP/diastolic BP/heart rate), and occurrence of side-effects. As for the availability of the combined administration, in the 12th week after starting the combined administration, the doctor in attendance judged the degree of the blood pressure controls on a three-point scale of “well-controlled”, “nearly well-controlled” and “poorly-controlled”, referring to the changes in the systolic and diastolic BP. As for the safety and availability analysis for each patient background, Fisher's exact probability test or the X^2 test was used. As for the blood pressure and heart rate, the average value and the standard deviation were calculated for the subjects before the combined administration (within 4 weeks before starting the combined administration), and data after starting the combined administration were determined on each observation day, and analysis was conducted by using a paired t-test. The test was conducted as the two-sided test and less than 5% of the risk rate was regarded as significant. Furthermore, side-effects were compiled based on the naming of preferred terms (PT) of MedDRA/J ver 8.0.
As the index of availability, in the 12th week after starting the combined administration, the doctor in attendance judged the degree of the blood pressure controls on a three-point scale of “well-controlled”, “nearly well-controlled” and “poorly-controlled”.
(1) Among the 2919 cases in the availability analysis, 42 cases in which the degree of the blood pressure controls was not described, and 168 cases which could not be judged, were excluded. In the other 2709 cases, the ratio of number of cases judged as “nearly well-controlled” or higher was calculated as the efficacy ratio. Accordingly, the efficacy ratio of the subject cases in the availability analysis was 84.8% (2298 cases/2709 cases).

COCCOC(=O)C1=C(C)NC(C)=C(C(=O)OC/C=C/c2ccccc2)C1c1cccc([N+](=O)[O-])c1 (racemic) [cilnidipine, 2-methoxyethyl-3-phenyl-2(E)-propenyl(±)-1,4-dihydro-2,6-dimethyl-4-(3-nitrophenyl)-3,5-pyridinedicarboxylate]
efficacy ratio (cases judged nearly well-controlled or higher) (all subject cases in the availability analysis, 12th week after starting cilnidipine + ARB, 2298 cases/2709 cases): 84.8%
efficacy ratio (cases judged nearly well-controlled or higher) (cases on ARB alone, cilnidipine additionally administered (antihypertensives ARB and cilnidipine only)): 86.4%
